Where two headings read alike, the source gives them in different places.

Test [1] concerns NF-κB signaling. Description: NF-κB signaling in BCWM.1 and MWCL-1 WM cells. It counts as cell-based. To be noted: BCWM.1 and MWCL-1 WM cells which possess the MYD88 L265P mutation.
The subject of test [2] is NF-κB signaling. To be noted: L265P expressing ABC DLBCL cell lines; cited from earlier work.
Test [3] has as its system MYD88 L265P expressing WM cells. Put plainly: Apoptosis analysis by Annexin V and PI staining. In kind it is cell-based. To be noted: BCWM.1 and MWCL-1 WM cells which possess the MYD88 L265P mutation. How it is done: Western blot analysis was performed using total and phospho-specific antibodies in MYD88 L265P expressing WM cells, BCWM.1 and MCWL-1 following MYD88 knockdown by lentiviral transduction, and/or use of MYD88 or IRAK signal inhibitors. […] Annexin V/PI staining was used to assess cell survival, and synergism assessed with CalcuSyn software.

Turning to `O=C(Nc1nc2ccccc2n1CCN1CCOCC1)c1cccc([N+](=O)[O-])c1` [IRAK1/4 inhibitor, N-(2-Morpholinylethyl)-2-(3-nitrobenzoylamido)-benzimidazole], the NF-κB signaling entry in the test with NF-κB signaling [1] and in the test with NF-κB signaling [2] was “loss of NF-κB signaling” in each case. In test [3], the apoptosis result is listed as “enhanced apoptosis”.

Values taken from US11739385B2, “Discovery of a somatic mutation in MYD88 gene in lymphoplasmacytic lymphoma” (Dana-Farber Cancer Institute, Inc., priority 2011, dated 2023).
